In article PMC9445589, “Apolipoprotein E mimetic peptide COG1410 combats pandrug-resistant Acinetobacter baumannii” (Frontiers in Microbiology, 2022):
Converted amounts (≈) assume the structure as drawn. “Also recorded” adds a separate entry of the source. Non-standard residues stand in square brackets, D forms with d. Residues, ends and D or L forms follow the SMILES beside them. Aib = CC(C)(N)C(=O)O

Columns and labels:
[1] = test system: panel of Gram-positive and Gram-negative strains; test: MIC on a panel of strains; type: cell-based; settings: Streptococcus pneumoniae, methicillin-sensitive S. aureus, MRSA, Klebsiella pneumoniae, Pseudomonas aeruginosa
Procedure: Strain stocks were maintained at −80°C in 10% glycerol. Bacteria were streaked on fresh plates before each experiment. Most of them were cultured in LB broth containing 10 g/L NaCl at 37°C, except for Mycobacteria in 7H9 broth and Enterococcus in BHI broth. Porphyromonas gingivalis was cultured in BHI broth supplemented with 1 μg/ml vitamin k1, 5 μg/ml hemin, and 5 mg/ml L-cysteine hydrochloride at 37°C in the anaerobic chamber. The minimal inhibitory concentrations (MICs) of antimicrobials were determined using the microdilution method in the corresponding broth.
The antimicrobial activity of COG1410 was determined by measuring the minimal inhibition concentration (MIC) values on a panel of Gram-positive and Gram-negative strains (Table 1).

[2] = stability in human plasma, disk diffusion read-out; settings: 100% human plasma, 10 mg/ml, 37°C, first 2 h; disk diffusion on A. baumannii YQ4, three independent experiments
Procedure: In order to determine the stability in human plasma, COG1410 was dissolved in1 ml of 100 % human plasma with the final concentration of 10 mg/ml and incubated at 37°C without shaking. Aliquots of 100 μl were taken at 0, 1, 2, 4, 6, 8, and 10 h. The log-phase culture of A. baumannii YQ4 was prepared as described above. About 200 μl of culture was mixed with 6 ml of 0.8% soft agar to make a two-layered plate. After air drying for 30 min, four 6-mm paper disks were placed on the top, and 6-μl aliquots of COG1410 at different time points were dropped on the paper disks. After 18 h of incubation at 37°C, the inhibition zones were recorded by a digital camera, and the inhibition diameters were measured by image J. Three independent experiments were performed.
About 10 mg/ml of COG1410 was incubated with 100% human plasma at 37°C and sampled at different time points. The stability of COG1410 was determined by evaluating the antibacterial activity against PDR A. baumannii YQ4 through the disk diffusion assay. The diameters of inhibition were measured. Three independent experiments were performed and data were represented as mean ± SD. The statistical significance between initial and different points was analyzed by Student's t-test. ^* indicated p < 0.05; ^*** indicated p < 0.001. Click here for additional data file.

A. baumannii YQ4 biofilm = test: static biofilm inhibition, crystal violet; type: cell-based, Acinetobacter baumannii; settings: 48 h
Procedure: Static biofilm inhibition was performed as described previously (Gaddy and Actis, [2009]). Briefly, the log-phase culture of A. baumannii YQ4 was prepared as described above. About 200 μl of culture was seeded in each cell of the 96-well PVC plate with OD600 of 0.01 (ca. 1 × 10^6 CFU/ml), which was exposed to different COG1410 solutions with the final concentrations ranging from 0.5 to 128 μg/ml. Each concentration was determined in eight wells. After incubation at 37°C for 48 h, the planktonic bacteria were removed by washing three times with sterilized water, followed by fixing in methanol for 15 min and staining with 0.1% crystal violet (CV) for 15 min. Excess CV was washed off, and the bound CV was eluted from the biofilm into 150 μl of 95% ethanol and quantitated spectrophotometrically at 600 nm using a Biotek Synergy H1 plate reader. The experiments were performed in triplicate.

[3] = test system: A. baumannii ATCC19606 and two LPS-modified strains, pmrA^P102R and pmrA^P102RmiaA^I221V; test: MIC against LPS-modified strains; type: cell-based, Acinetobacter baumannii; settings: MIC in LB broth, wild type versus mutants
Procedure: The growth curve was measured in duplicate, with eight wells for each treatment in a 96-well plate each time. […] Experiments were conducted in triplicate. Data indicated mean ± SD values.

[4] = test system: Mycobacterium smegmatis MC^2155; settings: Mycobacterium MC^2155
[5] = test system: EBSL-producing Klebsiella pneumoniae YQ7; settings: microdilution method in the corresponding broth
[6] = test system: MDR Klebsiella oxytoca 7–85; settings: microdilution method in the corresponding broth
MDR Serratia mucosa YQ15 = settings: microdilution method in the corresponding broth
[7] = test system: Acinetobacter baumannii ATCC19606
A. baumannii YQ4 [8] = test: dynamic time-kill assay in PBS
[9] = cytotoxicity assay, Cell Counting Kit 8; settings: human, L02 cells (human hepatic, normal liver cell)
Procedure: Briefly, 100 μl of human hepatic L02 cells was seeded in the 96-well plate with 4 × 10^3 per well in RPMI-1640 medium containing 20% FBS and incubated at 37°C in a 5% CO2 atmosphere for 24 h. The cells without exposure to peptides were used as a negative control. Then, the L02 cells were incubated with different concentrations of COG1410 for another 24 h. Then, 10 μl of CCK8 solution was added to each well. After 2 h of incubation, the optical absorbance at 450 nm was measured with a BioTek synergy H1 plate reader. […] The experiments were done in triplicate.

A. baumanii YQ4 = test: induction of resistance through serial passage; settings: sub-MIC exposure, 55 passages
[10] = test system: Caenorhabditis elegans (Bristol N2) infected with A. baumannii YQ4; test: nematode killing assay, C. elegans infection model; settings: 16 μg/ml COG1410 in NGM plate, versus untreated group
A. baumannii YQ4 [11] = test: transmission electron microscopy (TEM) of treated cells; settings: 1× MIC (16 μg/ml), PBS, 37°C, 30 min

CC(=O)N[C@@H](C)C(=O)N[C@@H](CO)C(=O)NC(C)(C)C(=O)N[C@@H](CC(C)C)C(=O)N[C@@H](CCCNC(=N)N)C(=O)N[C@@H](CCCCN)C(=O)N[C@@H](CC(C)C)C(=O)NC(C)(C)C(=O)N[C@@H](CCCCN)C(=O)N[C@@H](CCCNC(=N)N)C(=O)N[C@@H](CC(C)C)C(=O)N[C@@H](CC(C)C)C(N)=O [COG1410, acetyl-AS-Aib-LRKL-Aib-KRLL-amide] (Ac-AS[Aib]LRKL[Aib]KRLL-NH2)
antimicrobial activity in words [1]: inactive
change of inhibition diameter / degradation [2]: did not significantly change; also recorded: does not seem to be significantly degraded
biofilm formation, in words (A. baumannii YQ4 biofilm; 1/2 MIC, crystal violet): significantly reduced biofilm formation
reduction of biofilm mass (A. baumannii YQ4 biofilm; 1× MIC, 37°C, crystal violet OD600, versus untreated control): 55%
effect of lipid A modification of LPS on antimicrobial efficacy [3]: did not change the antimicrobial efficacy
MIC [4]: 16 µg/mL (≈ 11.4 µM)
MIC [5]: >256 µg/mL
MIC [6]: >256 µg/mL
MIC (MDR Serratia mucosa YQ15): >256 µg/mL
MIC [7]: 16 µg/mL (≈ 11.4 µM)
elimination of the inoculum (A. baumannii YQ4 [8]; 5 × MIC (80 μg/ml), within 5 min, PBS, inoculum 1 × 10^8 CFU/ml): completely eliminated
time to eliminate large inocula (A. baumannii YQ4 [8]; inocula 10^8 CFU/ml): ≤ 30 min
EC50 at 24 h [9]: 58.9 µg/mL (≈ 41.8 µM)
increase of MIC after serial passage (A. baumanii YQ4): 4 fold
survival of infected nematodes [10]: alleviated the death of infected nematodes but not statistically significantly
cell membrane integrity by TEM (A. baumannii YQ4 [11]): wrinkled and smaller compared with untreated cells
